The results in this text go back to ChEMBL document CHEMBL5154826, “Discovery of the Clinical Candidate MAK683: An EED-Directed, Allosteric, and Selective PRC2 Inhibitor for the Treatment of Advanced Malignancies” (J Med Chem, 2022).

In general, IC50 refers to the midpoint of a concentration-inhibition curve. Usually solubility stands for how much of the substance goes into solution per volume. One may read the GI50 as the concentration that inhibits growth by half. What is called pKa is the pH at which an ionisable group is half protonated. In general, logD refers to lipophilicity at a set pH, counting ionised and neutral species. The bioavailability is the share of a dose that reaches the circulation, judged against a reference dose that is usually intravenous. Higher therefore signals much systemic uptake. As a reminder, the efflux ratio is the permeability from basolateral to apical divided by that in the opposite direction, in the common usage.

Molecules are shown by their SMILES. Values after ≈ are worked out from the molar mass of the structure shown. Active and inactive are the calls of the source. The rule behind the calls is not given here.

The target of one data set is Cytochrome P450 2D6 (Homo sapiens, UniProt P10635). In words: Inhibition of CYP2D6 in human liver microsomes using bufuralol as substrate incubated for 10 mins in presence of NADPH by LC-MS/MS analysis. It counts as ADME, Microsome. (Liver microsomes are a subcellular fraction often used to study metabolism.)
A short description of data set [1]: High throughput solubility of the compound at pH 6.8 after 16 to 24 hrs by MS/MS analysis. It counts as physicochemical. Conditions: buffer, time 16-24 hrs.
The nature of data set [2]: Inhibition of PRC2 (unknown origin) assessed as reduction in H3K27 trimethylation using H3K27Me0 peptide (21 to 44 residues) as substrate by measuring SAH formation by LC-MS analysis. On the set-up: species or system Homo sapiens.
For data set [3], the target named is T1, Alpha-2C adrenergic receptor (Homo sapiens, UniProt P18825).
T1 sequence (P18825 whole entry): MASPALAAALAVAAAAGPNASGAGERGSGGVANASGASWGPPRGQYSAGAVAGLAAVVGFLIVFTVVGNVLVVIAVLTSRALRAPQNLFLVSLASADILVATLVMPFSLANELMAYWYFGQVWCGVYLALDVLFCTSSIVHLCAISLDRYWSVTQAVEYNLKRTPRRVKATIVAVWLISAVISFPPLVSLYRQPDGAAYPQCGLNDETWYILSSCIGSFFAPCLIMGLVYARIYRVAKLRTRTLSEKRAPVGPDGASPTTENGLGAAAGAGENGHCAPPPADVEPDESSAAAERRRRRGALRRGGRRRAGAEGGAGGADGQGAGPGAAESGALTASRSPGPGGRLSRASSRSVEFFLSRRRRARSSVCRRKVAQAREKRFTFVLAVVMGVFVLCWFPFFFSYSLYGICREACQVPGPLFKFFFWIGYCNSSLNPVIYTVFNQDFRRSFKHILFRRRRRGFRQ
Kind of data set: Inhibition of alpha2c adrenergic receptor (unknown origin).

Data set [4] addresses 3',5'-cyclic-AMP phosphodiesterase 4D (Homo sapiens, UniProt Q08499). Kind of data set: Inhibition of human Phosphodiesterase 4D.
A further data set concerns the target Cytochrome P450 2C9 (Homo sapiens, UniProt P11712). Kind of data set: Inhibition of CYP2C9 in human liver microsomes using diclofenac as substrate incubated for 10 mins in presence of NADPH by LC-MS/MS analysis. The data set is classed as ADME, Microsome.
In data set [5] the test system is KARPAS-422. In words: Antiproliferative activity against human KARPAS-422 cells expressing EZH2 mutant assessed as inhibition of cell growth after 14 days by beckman coulter counting method. It counts as functional. The conditions noted are these: Homo sapiens, KARPAS-422, 336 h; time 14 day.
The nature of data set [6]: Dissociation constant, pKa of compound. The data set is classed as physicochemical.
Data set [7] is described as follows: Lipophilicity, logD of the compound at pH 7.4 by LC with tandem MS analysis. The data set is classed as physicochemical. The conditions noted are these: buffer, read-out: logD.
The test system of a further data set is Pfeiffer. Kind of data set: Antiproliferative activity against human Pfeiffer cells assessed as inhibition of cell growth after 6 days by celltitre-glo assay. The data set is classed as functional. Conditions: 144 h, time 6 day.
The next data set in a line: cells. The conditions noted are these: Homo sapiens, G-401, 48 h.
Data set [8] can be described thus: Oral bioavailability in Sprague-Dawley rat at 2 mg/kg. The conditions noted are these: in vivo. The data set is classed as ADME, organism-based.
Data set [9] can be described thus: Terminal half life in Sprague-Dawley rat at 2 mg/kg, po. It counts as ADME, organism-based. The conditions noted are these: in vivo, read-out: beta t1/2 (converted).
Another data set has as its target Cytochrome P450 3A4 (Homo sapiens, UniProt P08684). In words: Inhibition of CYP3A4 in human liver microsomes using midazolam as substrate incubated for 10 mins in presence of NADPH by LC-MS/MS analysis. It counts as ADME, Microsome.
Data set [10] in a line: Permeability across apical to basolateral side in human Caco-2 cells at 10 uM incubated for 2 hrs by LC/MS/MS analysis. It counts as ADME, cell-based. Conditions: Caco-2, read-out: permeability. (In general: Caco-2 cells form a polarised layer with tight junctions and transporters.)
Data set [11] in a line: Efflux ratio of apparent permeability across basolateral to apical side over apical to basolateral side in human Caco-2 cells at 10 uM incubated for 2 hrs by LC/MS/MS analysis. It counts as ADME, cell-based.
Data set [12] is described as follows: Dose normalized AUC in Sprague-Dawley rat at 2 mg/kg, po. It counts as ADME, organism-based. The conditions noted are these: in vivo.
In data set [13] the test system is Mus musculus. In words: Reduction of H3K27 level in tumor of human Karpas-422 cells xenografted Athymic BALB/c nude mouse tumor at 20 mg/kg, po qd measured after 14 days. The data set is classed as functional, organism-based. The conditions noted are these: time 14.0 day. A general note: Xenograft models place foreign cells or tissue in a host animal.
In data set [14] the test system is Mus musculus. Kind of data set: Reduction of H3K27 level in tumor of human Karpas-422 cells xenografted Athymic BALB/c nude mouse at 3 to 300 mg/kg, po bid for 21 days. The data set is classed as functional, organism-based. Conditions: dose 3-300 mg/kg, time 21.0 day, DDE = dose-dependent effect.
Data set [15] has as its system KARPAS-422. In words: Antitumor activity against human Karpas-422 cells xenografted Athymic BALB/c nude mouse assessed as effect on tumor growth, at 10 to 300 mg/kg, po bid, treatment started at twenty fifth after implantation of cancer cells measured upto 55 days. It counts as functional, organism-based. Conditions: dose 10-300 mg/kg, time <= 55.0 day, DDE = dose-dependent effect.

For data set [16], the system named is Mus musculus. In words: Reduction of […] in tumor of human Karpas-422 cells xenografted Athymic BALB/c nude mouse tumor at 3 to 300 mg/kg, po bid for 10 days. The conditions noted are these: dose 3-300 mg/kg, time 10.0 day, DDE = dose-dependent effect. The data set is classed as functional, organism-based.
The test system of data set [17] is PBMC. In words: In vivo inhibition of PRC2 in PBMC collected from human Karpas-422 cells xenografted Athymic NTac:NIH-Whn nude rat assessed as complete recovery of H3K27me3 level at 30 mg/kg, po, qd treated for 4 weeks, followed by 4 weeks recovery period by FACS method. The data set is classed as functional, organism-based.
Data set [18] concerns Mus musculus. Kind of data set: Reduction of H3K27 level in tumor of human Karpas-422 cells xenografted Athymic BALB/c nude mouse at 3 to 100 mg/kg, po bid measured after 14 days. The data set is classed as functional, organism-based. Conditions: dose 3-100 mg/kg, time 14.0 day, DDE = dose-dependent effect.
Data set [19] concerns KARPAS-422. In words: Antitumor activity against human Karpas-422 cells xenografted Athymic NTac:NIH-Whn nude rat assessed as inhibition of cell growth at 0.3 to 60 mg/kg, po, qd upto 130 days. The conditions noted are these: dose 0.3-60 mg/kg, time <= 130.0 day. It counts as functional, organism-based.
The subject of data set [20] is PBMC. In words: In vivo inhibition of PRC2 in PBMC collected from human Karpas-422 cells xenografted Athymic NTac:NIH-Whn nude rat assessed as reduction in H3K27me3 level at 30 mg/kg, po, qd upto 4 weeks by FACS method. Conditions: TDE = time-dependent effect. The data set is classed as functional, organism-based.
The nature of data set [21]: High throughput solubility of the compound at pH 4 after 16 to 24 hrs by MS/MS analysis. It counts as physicochemical. The conditions noted are these: buffer, time 16-24 hrs.
Data set [22] can be described thus: High throughput solubility of the compound at pH 7 after 16 to 24 hrs by MS/MS analysis. The data set is classed as physicochemical. Conditions: buffer, time 16-24 hrs.

Chain of Cytochrome P450 2D6 (P10635 whole entry): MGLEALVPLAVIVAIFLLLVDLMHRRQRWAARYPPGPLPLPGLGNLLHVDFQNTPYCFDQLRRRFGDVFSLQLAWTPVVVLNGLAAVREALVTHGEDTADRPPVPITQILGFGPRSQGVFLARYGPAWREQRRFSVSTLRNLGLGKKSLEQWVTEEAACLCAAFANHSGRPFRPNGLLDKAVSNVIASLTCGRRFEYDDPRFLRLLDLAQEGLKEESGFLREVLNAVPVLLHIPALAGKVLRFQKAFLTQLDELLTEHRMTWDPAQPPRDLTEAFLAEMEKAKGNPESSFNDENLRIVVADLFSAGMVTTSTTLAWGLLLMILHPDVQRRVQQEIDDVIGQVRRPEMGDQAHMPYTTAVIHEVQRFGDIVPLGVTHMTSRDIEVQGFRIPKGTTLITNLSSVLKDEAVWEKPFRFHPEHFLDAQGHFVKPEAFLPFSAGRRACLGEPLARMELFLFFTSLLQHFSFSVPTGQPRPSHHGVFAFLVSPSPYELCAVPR
Chain of 3',5'-cyclic-AMP phosphodiesterase 4D (Q08499 whole entry): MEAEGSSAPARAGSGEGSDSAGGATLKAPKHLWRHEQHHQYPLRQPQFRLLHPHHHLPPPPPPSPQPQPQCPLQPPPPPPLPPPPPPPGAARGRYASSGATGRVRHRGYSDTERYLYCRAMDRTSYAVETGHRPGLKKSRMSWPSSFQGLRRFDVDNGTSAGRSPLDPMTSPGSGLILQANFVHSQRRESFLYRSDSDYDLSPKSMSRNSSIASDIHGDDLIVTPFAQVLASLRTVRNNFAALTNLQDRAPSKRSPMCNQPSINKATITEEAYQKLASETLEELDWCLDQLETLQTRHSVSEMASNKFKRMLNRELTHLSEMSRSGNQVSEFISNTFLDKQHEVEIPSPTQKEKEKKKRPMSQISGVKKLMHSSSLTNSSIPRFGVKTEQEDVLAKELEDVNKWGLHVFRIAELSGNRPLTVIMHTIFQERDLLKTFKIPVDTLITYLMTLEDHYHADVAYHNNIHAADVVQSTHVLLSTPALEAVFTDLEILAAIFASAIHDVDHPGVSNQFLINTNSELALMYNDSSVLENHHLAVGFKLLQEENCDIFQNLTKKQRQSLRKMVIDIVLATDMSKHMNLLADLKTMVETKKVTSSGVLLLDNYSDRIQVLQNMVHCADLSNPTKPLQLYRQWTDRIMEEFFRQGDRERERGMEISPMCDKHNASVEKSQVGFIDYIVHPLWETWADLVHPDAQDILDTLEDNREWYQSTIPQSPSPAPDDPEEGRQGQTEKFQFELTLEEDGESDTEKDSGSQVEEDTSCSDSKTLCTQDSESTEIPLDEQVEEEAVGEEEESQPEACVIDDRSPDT
Chain of Cytochrome P450 2C9 (P11712 whole entry): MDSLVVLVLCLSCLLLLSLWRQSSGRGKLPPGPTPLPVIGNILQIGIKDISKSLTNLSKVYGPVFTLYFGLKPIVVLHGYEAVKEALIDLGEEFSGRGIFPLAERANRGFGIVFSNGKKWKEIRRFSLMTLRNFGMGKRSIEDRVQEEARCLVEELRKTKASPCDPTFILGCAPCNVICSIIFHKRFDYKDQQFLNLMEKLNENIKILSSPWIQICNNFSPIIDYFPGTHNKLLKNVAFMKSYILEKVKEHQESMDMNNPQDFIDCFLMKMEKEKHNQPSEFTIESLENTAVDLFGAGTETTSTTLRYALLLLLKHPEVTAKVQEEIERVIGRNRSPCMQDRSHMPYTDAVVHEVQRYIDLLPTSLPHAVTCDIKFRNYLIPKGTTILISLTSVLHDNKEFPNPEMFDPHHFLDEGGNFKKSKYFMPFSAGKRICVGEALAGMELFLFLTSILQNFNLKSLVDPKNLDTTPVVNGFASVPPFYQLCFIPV
Chain of Cytochrome P450 3A4 (P08684 whole entry): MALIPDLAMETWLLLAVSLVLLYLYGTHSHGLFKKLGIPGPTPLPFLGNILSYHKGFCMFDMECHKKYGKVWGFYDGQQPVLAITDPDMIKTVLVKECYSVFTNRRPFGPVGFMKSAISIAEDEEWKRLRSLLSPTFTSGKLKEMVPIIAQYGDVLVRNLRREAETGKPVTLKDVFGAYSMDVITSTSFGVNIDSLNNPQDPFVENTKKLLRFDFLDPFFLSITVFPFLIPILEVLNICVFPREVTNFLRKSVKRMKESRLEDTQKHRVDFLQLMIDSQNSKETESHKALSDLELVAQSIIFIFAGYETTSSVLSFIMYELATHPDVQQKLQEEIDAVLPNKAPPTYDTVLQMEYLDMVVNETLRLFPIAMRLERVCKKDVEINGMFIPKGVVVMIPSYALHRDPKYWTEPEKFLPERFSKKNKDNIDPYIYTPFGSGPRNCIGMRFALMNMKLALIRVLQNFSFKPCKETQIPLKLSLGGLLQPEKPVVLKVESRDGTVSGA
Description for cells: Inhibition of PRC2 in human G-401 cells assessed as H3K27 methylation status incubated for 48 hrs by ELISA method

Regarding `Cc1ccc(-c2cnc(NCc3c(F)ccc4c3CCO4)n3cnnc23)c(C)n1`, the half-inhibitory concentration (IC50) on Cytochrome P450 2D6 was 31 µM; in data set [2], 0.005 µM. Also, the solubility in data set [1] stood at 308 µM (≈ 120 µg/mL).

With `COc1cccc(F)c1CNc1ccc(-c2cccnc2C)c2nncn12`, the values for the IC50 (on Cytochrome P450 2D6; in [2]) were more than 50 µM and 0.011 µM, respectively. The molecule further yielded a solubility in data set [1] of 265 µM (≈ 96.3 µg/mL).

On to `CN(C)Cc1ccc(-c2cnc(NCc3cccc4c3OCC4)n3cnnc23)cc1`, for which, in [2], the IC50 was 2600 µM.

As for `c1cc(CNc2ncc(-c3ccncc3)c3nncn23)c2c(c1)OCC2`, the IC50 is 0.2 µM at Cytochrome P450 2D6; more than 30 µM in data set [3]; 10 µM in data set [4]; 0.017 µM in data set [2]; more than 50 µM on Cytochrome P450 2C9. In data set [1], this molecule had a solubility of 5 µM (≈ 1.72 µg/mL). Also, the GI50 with KARPAS-422 [5] is 0.01 µM. This molecule showed a pKa in data set [6] of 5.4. Also, the pH-dependent lipophilicity (logD) in [7] was determined as 2.5.

`CN(C)Cc1ccc(-c2cnc(NCc3cccc4c3CCO4)n3cnnc23)cc1`: in the data set on Pfeiffer, the GI50 was 0.067 µM. The IC50 in “cells” was found to be 14 µM; in [2], 20 µM.

In the case of `COc1cccc(CNc2ncc(-c3ccc(CN(C)C)cc3)c3nncn23)c1`, in the data set with Pfeiffer, the GI50 was 2.97 µM. Moreover, the results for the IC50 (in the data set “cells”; in data set [2]) were 320 µM and 110 µM, respectively.

Regarding `COc1cccc(F)c1CNc1ccc(-c2ccc(C)nc2C)c2nncn12`, the IC50 at Cytochrome P450 2D6 is 25 µM; in data set [2], 0.023 µM. In data set [1], this molecule returned a solubility of 162 µM (≈ 61.1 µg/mL).

Regarding `Fc1ccc2c(c1CNc1ncc(-c3cccnc3)c3nncn13)CCO2`, the IC50 at Cytochrome P450 2D6 was found to be 0.019 µM. For the same molecule, the concentration in solution in [1] (solubility) was 85 µM (≈ 30.8 µg/mL).

Consider `CN(C)Cc1ccc(-c2cnc(NCc3cccc4c3OCO4)n3cnnc23)cc1`, for which, in the data set with Pfeiffer, the GI50 worked out at 1.3 µM. The 50% inhibitory concentration (IC50) in the data set “cells” was determined as 260 µM; in [2], 15 µM.

Molecule `c1cncc(-c2cnc(NCc3cccc4c3CCO4)n3cnnc23)c1` registered a bioavailability in [8] of 71%. Further, the IC50 was 0.1 µM on Cytochrome P450 2D6; 3.9 µM in data set [3]; 0.033 µM in the data set “cells”; 2.6 µM in data set [4]; 29 µM on Cytochrome P450 3A4; 0.024 µM in data set [2]. Further, at Cytochrome P450 2C9, the IC50 is 12 µM. In [9], the half-life was 1.5 h. The molecule further had a solubility in data set [1] of 15 µM (≈ 5.17 µg/mL). Further, the Papp A→B at 2 h, 10 µM in data set [10] was 30 ×10⁻⁶ cm/s. In addition, the efflux ratio at 2 h, 10 µM in data set [11] is 0.96. Besides, the GI50 in the data set with KARPAS-422 [5] worked out at 0.012 µM. The same molecule displayed an AUC/dose in data set [12] of 5790 nM·h. This molecule also registered a pKa in data set [6] of 4.5. Moreover, the logD in [7] was 2.6.

For `Cc1ncccc1-c1cnc(NCc2c(F)ccc3c2CCO3)n2cnnc12`, the outcome with Mus musculus [13] and in the data set with KARPAS-422 [19] was Active. The Activity entry in the data set with Mus musculus [14], in the data set on KARPAS-422 [15], in the data set with Mus musculus [16] and in the data set on Mus musculus [18] was “Dde” throughout. In addition, the inhibition entry in the data set with PBMC [17] was “Active”. Besides, the inhibition result in the data set on PBMC [20] was “Tde”.

Take `Cc1ncccc1-c1cnc(NCc2c(F)ccc3c2CCO3)n2cnnc12.Cl`: the results for the solubility in [21] and in data set [22] were 494 µM and 69 µM, respectively.

As to `Cc1ccc(-c2cnc(NCc3c(F)ccc4c3CCO4)n3cnnc23)cn1`, the IC50 at Cytochrome P450 2D6 came to 7.4 µM; in data set [2], 0.019 µM. Also, the solubility in [1] came out at 112 µM (≈ 42.2 µg/mL).

As to `COc1cccc(F)c1CNc1ccc(-c2cccnc2)c2nncn12`, the values for the IC50 (at Cytochrome P450 2D6; in [2]) were 0.4 µM and 0.016 µM, respectively. This molecule also yielded a solubility in [1] of 22 µM (≈ 7.69 µg/mL).
